Measurements reported in patent US10308631B2, “Selective anti-cancer compounds” (NATIONAL UNIVERSITY OF SINGAPORE, priority 2015, dated 2019).

Tests used:
[1] = test system: autophagosome marker LC3 (LC3 II/LC3 I) in transformed BJ cells; test: Immunoblot analysis of autophagosome marker LC3 (lysosome function), derivatives of Compound 1; assay type: cell-based; details: Homo sapiens, band intensities LC3 II/LC3 I vs DMSO control, 24 h
Method: (§1) FIG. 4 compares the ability of Compound 1 (a131), and various derivatives thereof (referred to using their code numbers for brevity; the designated chemical compound for each code number is provided in the chemical examples section below), to inhibit autophagy and/or mitosis. BJ transformed cells were treated with 5 μM of various Compounds as shown, for 24 h. Cells were harvested and total lysates were analysed by detecting the mitotic marker phospho-histone H3 at serine 10 (pH3 (Ser10)) and the autophagosome marker LC3. Antibodies raised against β-actin were used as an internal loading control.
(§2) The ability of Compound 1 to inhibit lysosome function was examined using immunoblotting. HeLa cervical cancer cells were cultured in Dulbecco's modified Eagle's medium (DMEM) supplemented with 10% Fetal Bovine Serum (FBS, Thermo Scientific). The HeLa cells were treated with different concentrations of Compound 1 (0.625, 1.25, 2.5, 5 and 10 μM, dimethyl sulfoxide (DMSO, Kanto Kagaku)), chloroquine (CQ) (1.25, 2.5, 10, 50 and 100 μM, DMSO) or DMSO for 6 h. Then, the treated cells were harvested and lysed in 1% triton lysis buffer [25 mM Tris HCl (pH8.0), 150 mM NaCl, 1% triton-X100, 1 mM dithiothreitol (DTT), protease inhibitor mix (Complete Mini, Roche) and phosphatase inhibitor (PhosphoStop, Roche)]. The proteins in total lysates were boiled with sample buffer (60 mM Tris-HCl (pH 6.8), 25% glycerol, 2% SDS, 14.4 mM 2-mercaptoethanol, 0.1% bromophenol blue) and resolved by 14% tris-glycine sodium dodecyl sulfate polyacrylamide gel electrophoresis (SDS-PAGE) and subjected to immunoblot analysis.
(§3) Defects in lysosome function and inhibition of autophagy can be measured by accumulation of LC3-phosphatidylethanolamine conjugated non-soluble form (LC3-II), which are converted from soluble LC3-I. Thus, antibodies raised against LC3 (Cell Signaling, Cat#4108) were used to determine lysosomal function and integrity. Antibodies raised against phosphorylated histone H3 at serine 10 residue (pH3) (Cell signaling, Cat#3377) were used as the marker for mitotic dysfunction and arrest. Antibodies raised against β-actin (Millipore, Cat#MAB1501) were used as an internal loading control. The inhibitory ability of Compound 1 was also quantitatively compared to CQ.
(§4) Derivatives of Compound 1 were tested to see if they had similar dual activity, or presented only one of the activities of Compound 1. The protocol for immunoblot analysis described in Biology Example 1 was applied to the additional indicated compounds.
(§5) Activities of compounds were determined by two independent experiments. First, Compounds were classified according to the intensity of increase in each of the mitotic marker phospho-histone H3 at serine 10 (pH3 (Ser 10)) and the autophagosome marker LC3, respectively, at 1.25 μM, when compared with 1.25 μM Compound 1 (a131).
(§6) Compounds classified “++” on either “mitosis” or “inhibits lysosome” show similar increase in each of the mitotic marker phospho-histone H3 at serine 10 (pH3 (Ser10)) and the autophagosome marker LC3, respectively, at 2.5 μM, when compared with 1.25 μM Compound 1 (a131); and compounds classified “+” on either “mitosis” or “inhibits lysosome” show similar increase in each of the mitotic marker phospho-histone H3 at serine 10 (pH3 (Ser10)) and the autophagosome marker LC3, respectively, at a concentration range of 5-10 μM, when compared with 1.25 μM Compound 1 (a131).
Compounds classified “+/−” on either “mitosis” or “inhibits lysosome” show less increase in each of the mitotic marker phospho-histone H3 at serine 10 (pH3 (Ser10)) and the autophagosome marker LC3, respectively, at a concentration range of 5-10 μM, when compared with 1.25 μM Compound 1 (a131). […]

[2] = test system: pH3 (Ser10) and LC3 in BJ transformed cells; test: Immunoblot classification of compounds by pH3 and LC3 (FIG. 4); assay type: cell-based, human; details: 5 μM, 24 h
Method: as §1, §4

[3] = test system: oncogene-transformed BJ cells; test: PI staining and FACS analysis, sub-G1 cell death; assay type: cell-based, human; details: for cell death (population of cells in sub-G1) / cell death: 48 h; for cell death (population of cells in sub-G1): Compound 1 2.5 μM, other Group 1 and Group 2 compounds 10 μM, Compound 3 5 μM (FIG. 5A)
Method: FIG. 5A is a histogram showing the ability of Compound 1 (a131) and its derivatives Compound 2 (a156), Compound 16 (b5), Compound 17 (b9), all in Group 1; Compound 29 (a219), Compound 13 (b12), Compound 11 (b15), Compound 12 (b16), Compound 25 (a166), all in Group 2; and Compound 3 (a159) from Group 3, to induce cancer selective cell death. Isogenic non-transformed (normal) and oncogene-transformed BJ cells were treated with each compound for 48 h and cells were stained with propidium iodide (PI) and subjected to FACS analysis. The percentage of cells in sub-G1 phase is indicative of the extent of cell death. […] In contrast, the ability of the compounds in Groups 2 and 3 to induce cancer selective cell death was markedly compromised (or reduced).
The Compounds 25 (a166) and 3 (a159) were selected from Group 2 and Group 3, respectively. Isogenic non-transformed normal and oncogene-transformed BJ cells were treated with or without 0.3 μM or 0.6 μM Compound 3 (a159) alone or together with 1.25 μM Compound 25 (a166) for 48 h. Cells were stained with propidium iodide (PI) and subjected to FACS analysis.
Isogenic non-transformed and oncogene-transformed human fibroblast BJ cell lines were cultured in DMEM supplemented with 10% FBS. The cells were treated with Compound 1 (2.5 μM, DMSO). 48 h after treatment, the cells were fixed with ethanol at −30° C. overnight and stained with 20 μg/mL propidium iodide (PI) and 10 μg/mL RNase A for 30 min. These cells were then subjected to flow cytometry (FACS) analysis using MACSQuant (Miltenyi Biotec) to count the percentage of apoptotic cells in sub-G1 peak.
The above procedure was repeated for Group 1 Compounds 2, 16 and 17, Group 2 Compounds 29, 13, 11, 12 and 25 at a concentration of 10 μM, and Group 3 Compound 3 at a concentration of 5 μM.
Isogenic non-transformed normal and oncogene-transformed BJ cells were cultured as in Biology Example 3. The cells were treated with a combination of Compound 3 (Group 3, at a concentration of 0.3 μM or 0.6 μM), and Compound 25 (Group 2, at a concentration of 1.25 μM) for 48 hours. Controls using DMSO, Compound 3 and Compound 25 alone (at the concentrations mentioned above) were also performed.

[4] = test system: mitotic marker phospho-histone H3 at serine 10 (pH3 (Ser10)) in transformed BJ cells; test: Immunoblot analysis of mitotic marker pH3 (Ser10), derivatives of Compound 1; assay type: cell-based; details: Homo sapiens, band intensities pH3(Ser10)/β-actin vs DMSO control, 24 h
Method: as §1, §2, §3, §4, §5, §6
Compounds classified “+/−” on either “mitosis” or “inhibits lysosome” show less increase in each of the mitotic marker phospho-histone H3 at serine 10 (pH3 (Ser10)) and the autophagosome marker LC3, respectively, at a concentration range of 5-10 μM, when compared with 1.25 μM Compound 1 (a131).
Next, the ability of Compound 1 and its derivatives to induce mitotic arrest in transformed BJ cells was quantified as the fold induction of band intensities [pH3(Ser10)/β-actin] in comparison with DMSO control. […]

Row | SMILES | fold induction at 5 µM [1] | Inhibition of lysosome function and/or mitosis (FIG. 4) [2] | population of cells in sub-G1 ([3]; 2.5 and 5 μM, 24 h (FIG. 9A panels g-i)) | cell death (population of cells in sub-G1) [3] | fold induction at 5 µM [4] | cell death ([3]; Compound 3 alone at 0.3 μM) | cell death ([3]; Compound 3 alone at 0.6 μM) [%]
1 | N#C/C(=C\c1cccc2cnccc12)c1c[nH]c2ccccc12 [Compound 1, (Z)-2-(1H-indol-3-yl)-3-(isoquinolin-5-yl)acrylonitrile] | 5 | exhibit the dual properties of inhibiting both lysosome function and mitosis | massive increase in population of oncogene-transformed BJ cells in sub-G1 | selectively induced cell death in oncogene-transformed BJ cells while sparing normal counterparts | 7.3 |  | 
2 | N#C/C(=C\c1cccc2ncccc12)c1c[nH]c2ccccc12 [Compound 3, (Z)-2-(1H-indol-3-yl)-3-(quinolin-5-yl)acrylonitrile] | 0.7 | inhibit mitosis only |  | significantly induced cell death | 10.5 | negligible effect | −15
3 | CN1CCN(CC(=O)n2cc(/C(C#N)=C/c3cccc4cnccc34)c3ccccc32)CC1 [Compound 16, (Z)-3-(isoquinolin-5-yl)-2-(1-(2-(4-methylpiperazin-1-yl)acetyl)-1H-indol-3-yl)acrylonitrile] | 5 | exhibit the dual properties of inhibiting both lysosome function and mitosis |  | selectively induced cell death in oncogene-transformed BJ cells while sparing normal counterparts | 11.8 |  | 
